Experimental data as given in PubChem BioAssay AID330 (DTP/NCI, 2004).
“And” between values parts separate entries of the source, which are not always exact repeats. Equal entries are not always repeated. Inconclusive results and toxic doses are left out.

Tested on: P388 leukemia ip, CD2F1 mice, survival T/C
Assay: NCI In Vivo Anticancer Drug Screen. Data for tumor model P388 Leukemia (intraperitoneal) in CD2F1 (CDF1) mice
Conditions: endpoint: median survival time, higher = longer survival
Outline: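 Mice carrying the transplanted tumor received test compound or vehicle. Survival was recorded in each group, and the value is the treated-group measurement divided by that of the vehicle-treated control group.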

[1] = dose: 60.0 mg/kg/injection, schedule: Q01DX005 (ip), vehicle: saline with Tween-80
[2] = dose: 120.0 mg/kg/injection, schedule: Q01DX005 (ip), vehicle: saline with Tween-80
[3] = dose: 6.25 mg/kg/injection, schedule: Q01DX005 (ip), vehicle: saline with Tween-80
[4] = dose: 12.5 mg/kg/injection, schedule: Q01DX005 (ip), vehicle: saline with Tween-80
[5] = dose: 25.0 mg/kg/injection, schedule: Q01DX005 (ip), vehicle: saline with Tween-80
[6] = dose: 100.0 mg/kg/injection, schedule: Q01DX009 (ip), vehicle: Klucel (hydroxypropylcellulose) (HPC)
[7] = dose: 50.0 mg/kg/injection, schedule: Q01DX005 (ip), vehicle: saline with Tween-80

In the case of CC(=O)NS(=O)(=O)c1ccc(NN=Nc2ccccc2Cl)cc1, the T/C (dose: 50.0 mg/kg/injection, schedule: Q01DX005 (ip), vehicle: Klucel (hydroxypropylcellulose) (HPC)) is reported as 95 % of control, the T/C (dose: 100.0 mg/kg/injection, schedule: Q01DX005 (ip), vehicle: Klucel (hydroxypropylcellulose) (HPC)) is reported as 94 % of control and the T/C (dose: 200.0 mg/kg/injection, schedule: Q01DX005 (ip), vehicle: Klucel (hydroxypropylcellulose) (HPC)) is reported as 97 % of control.
In the case of S=c1o[nH]c(-c2ccccc2)c1C=Nc1ccccc1, the T/C [1] is reported as 102 % of control, the T/C [2] is reported as 93 % of control and the T/C (dose: 240.0 mg/kg/injection, schedule: Q01DX005 (ip), vehicle: saline with Tween-80) is reported as 94 % of control.
In the case of COc1ccc(N2C(N)=NC(N)=NC2(C)C)cc1, the T/C [3] is reported as 93 % of control, the T/C [4] is reported as 102 % of control and the T/C [5] is reported as 107 % of control.
With COc1ccc(NC(=S)Nc2ccccc2C(F)(F)F)c(OC)c1 the T/C (dose: 50.0 mg/kg/injection, schedule: Q01DX009 (ip), vehicle: Klucel (hydroxypropylcellulose) (HPC)) was 99 % of control, the T/C [6] was 95 % of control and the T/C (dose: 200.0 mg/kg/injection, schedule: Q01DX009 (ip), vehicle: Klucel (hydroxypropylcellulose) (HPC)) was 94 % of control.
In the case of O=C(NC(Cc1ccsc1)C(=O)O)c1ccccc1 (stereo not given), the T/C (dose: 25.0 mg/kg/injection, schedule: Q01DX009 (ip), vehicle: other) is reported as 102 % of control, the T/C (dose: 50.0 mg/kg/injection, schedule: Q01DX009 (ip), vehicle: other) is reported as 104 % of control and the T/C (dose: 100.0 mg/kg/injection, schedule: Q01DX009 (ip), vehicle: other) is reported as 98 % of control.
With CC1N=C(SCC(=O)c2ccc(Cl)cc2)N2C(C)N=C(SCC(=O)c3ccc(Cl)cc3)N12 (stereo not given) the T/C (dose: 50.0 mg/kg/injection, schedule: Q01DX009 (ip), vehicle: saline) was 98 % of control, the T/C (dose: 100.0 mg/kg/injection, schedule: Q01DX009 (ip), vehicle: saline) was 90 % of control and the T/C (dose: 200.0 mg/kg/injection, schedule: Q01DX009 (ip), vehicle: saline) was 90 % of control.
For O=C1c2cccc3cccc(c23)C(=O)N1CCCCCCCCN1C(=O)c2cccc3cccc(c23)C1=O, the T/C [7] was 96 % of control, the T/C (dose: 100.0 mg/kg/injection, schedule: Q01DX005 (ip), vehicle: saline with Tween-80) was 95 % of control and the T/C (dose: 200.0 mg/kg/injection, schedule: Q01DX005 (ip), vehicle: saline with Tween-80) was 87 % of control.
For CSc1cccc(NC(=O)OCCOc2ccc(-c3ccccc3)cc2)c1, the T/C [6] was 87 % of control.
In the case of Nc1ccc2nc(-c3ccccc3)c(=O)oc2c1, the T/C [1] is reported as 97 % of control and the T/C [2] is reported as 98 % of control.
CN(C)Cc1cn(C[Si](C)(C)C)c2ccccc12 was tested, and the T/C [1] was 112 % of control.
CCOC1=CCCCC1 was tested, and the T/C (dose: 100.0 mg/kg/injection, schedule: Q04DX003 (ip), vehicle: alcohol) was 100 % of control, the T/C (dose: 200.0 mg/kg/injection, schedule: Q04DX003 (ip), vehicle: alcohol) was 100 % of control and the T/C (dose: 400.0 mg/kg/injection, schedule: Q04DX003 (ip), vehicle: alcohol) was 104 % of control.
For FC(F)(F)c1ssc1C(F)(F)F, the T/C (dose: 100.0 mg/kg/injection, schedule: Q01DX001 (ip), vehicle: other) was 99 % of control and the T/C (dose: 200.0 mg/kg/injection, schedule: Q01DX001 (ip), vehicle: other) was 104 % of control.
CC[N+](CC)=c1cc2oc3cc(N(C)C)ccc3nc-2cc1C was tested, and the T/C [3] was 99 % of control and 107 % of control, the T/C (dose: 6.25 mg/kg/injection, schedule: Q01DX005 (ip), vehicle: saline) was 107 % of control and the T/C [4] was 106 % of control and 110 % of control. The T/C (dose: 12.5 mg/kg/injection, schedule: Q01DX005 (ip), vehicle: saline) was 112 % of control, the T/C [5] was 109 % of control and 115 % of control and the T/C (dose: 25.0 mg/kg/injection, schedule: Q01DX005 (ip), vehicle: saline) was 122 % of control. The T/C [7] was 109 % of control and 110 % of control and 112 % of control.
For COc1ccc(/C=N\N2CN(C(CC(N)=O)C(=O)O)C(O)(CCl)N=C2N)cc1OC (stereo not given), the T/C (dose: 60.0 mg/kg/injection, schedule: Q01DX005 (ip), vehicle: saline) was 95 % of control, the T/C (dose: 120.0 mg/kg/injection, schedule: Q01DX005 (ip), vehicle: saline) was 98 % of control and the T/C (dose: 240.0 mg/kg/injection, schedule: Q01DX005 (ip), vehicle: saline) was 98 % of control.
